Reference: paper PMC12040169 (PLOS Biology, 2025)

Assay: in vitro
Settings: human, hela cells, % viability

O=C(Oc1ccc(N(C(=O)c2ccncc2)S(=O)(=O)c2cccc3cccnc23)c2ccccc12)c1ccncc1 [CBK266915]
viability at 28.5 h, 10 µM: 79.5%

CC(C)n1cccc1CN[C@@H]1CCC(=O)N[C@H]1c1cccc(F)c1 [CBK282908]
viability at 28.5 h, 10 µM: 91.1%

CCCCNC(=S)NC1CC[C@@]2(c3ccc(Br)cc3)CCN(C)[C@H]2C1 (stereo partly drawn) [CBK003781]
viability at 28.5 h, 10 µM: 111%

CN(CCc1ccncc1)C(=O)c1cc2ccc(F)cc2[nH]1 [CBK283215]
viability at 28.5 h, 10 µM: 81.3%

CCOC(=O)C1CCN(C(=O)Cn2cnc3ccc(Br)cc3c2=O)CC1 [CBK306070]
viability at 28.5 h, 10 µM: 106%

CC(=O)OC1CCn2c1nc1ccccc12 (stereo not drawn) [CBK113621]
viability at 28.5 h, 10 µM: 92.6%

COc1ccccc1-c1c(O)n[nH]c1C(C)C [CBK075133]
viability at 28.5 h, 10 µM: 111%

CSc1cc(C)c2c(c1)COC1(CCN(C(=O)NC3CCCCC3)CC1)O2 [CBK060745]
viability at 28.5 h, 10 µM (bulk resorufin, single well): 97.4%

CN(C)CCNC(=O)c1cccc(-c2cn3ccnc3c(NCc3ccccc3)n2)c1 [CBK066365]
viability at 28.5 h, 10 µM: 102%

Cc1ccc(S(=O)(=O)NCC23C=CC(O2)C2C(=O)N(Cc4ccccc4)C(=O)C23)cc1 (stereo not drawn) [CBK261170]
viability at 28.5 h, 10 µM: 107%

Nc1csc(C2CCOCC2)n1 [CBK019258]
viability at 28.5 h, 10 µM: 77.3%

N#Cc1c(NC(=O)c2cc(S(=O)(=O)N3CCCCC3)c(Cl)cc2Cl)sc2c1CCCC2 [CBK264579]
viability at 28.5 h, 10 µM: 104%

O=[N+]([O-])c1ccc(Cl)cc1N/N=C1\CN2CCC1CC2 [CBK217272]
viability at 28.5 h, 10 µM: 108%

C=C(C)C(=O)OCCOC(=O)c1cc(N)cc(N)c1 [CBK261389]
viability at 28.5 h, 10 µM: 101%

Cc1noc(C)c1NC(=O)c1nc2ccccc2[nH]1 [CBK200315]
viability at 28.5 h, 10 µM: 81.5%

C[C@@H](Cn1nnc2ccccc21)NC(=O)Cc1cccc(F)c1 [CBK282306]
viability at 28.5 h, 10 µM: 90.8%

Cc1cnn(CC(=O)NC(Cc2ccsc2)c2nccs2)c1 (stereo not drawn) [CBK282825]
viability at 28.5 h, 10 µM: 105%

O=C(O)/C=C/C(=O)Nc1ccccc1Br [CBK086488]
viability at 28.5 h, 10 µM: 106%

O=C(NC(c1ccc(Cl)cc1)c1cccnc1)C1CCN(C(=O)c2ccco2)CC1 (stereo not drawn) [CBK059708]
viability at 28.5 h, 10 µM: 92.4%

NC(=O)c1c(NC(=O)COc2ccccc2[N+](=O)[O-])sc2c1CCC2 [CBK262819]
viability at 28.5 h, 10 µM: 105%

CS(=O)(=O)c1ccc(-c2ccc(C(=O)N3CCN(C(=O)OCc4ccccc4)CC3)cn2)cc1 [CBK160189]
viability at 28.5 h, 10 µM: 107%

CCCCN(C=O)c1c(CC)nc2ccc(C(=O)NCC3CCCCC3)cn12 [CBK145708]
viability at 28.5 h, 10 µM: 85.3%

CCCn1c(CN2CCN(CCO)CC2)nc2ccccc21 [CBK269363]
viability at 28.5 h, 10 µM: 110%

CC1=C(C)C(=NNC(N)=S)C(C)=C(C)C1=NNC(N)=S [CBK261262]
viability at 28.5 h, 10 µM: 91.9%

Cn1cccc1CNCc1ccccn1 [CBK269818C]
viability at 28.5 h, 10 µM: 96%

CCn1nc(C)c(CNC(=O)N(Cc2ccccn2)CC(C)C)c1C [CBK304193]
viability at 28.5 h, 10 µM: 92.1%

O=C(c1ccncc1)C12CN3CN(CN(C3)C1)C2 [CBK261451]
viability at 28.5 h, 10 µM: 97.6%

c1csc(-c2nnc(C3CCN(Cc4ccsc4)CC3)o2)c1 [CBK285309]
viability at 28.5 h, 10 µM: 102%

COc1ncc(-c2cncc(NCCc3ccccn3)n2)c(OC)n1 [CBK065287]
viability at 28.5 h, 10 µM: 97.7%

COc1ccc(Nc2cc(Cl)ccc2C(=O)O)cn1 [CBK022801]
viability at 28.5 h, 10 µM: 91.5%

NC(=O)c1cccc(COc2ccccc2C(=O)Nc2ccc(-c3ccsc3)cc2C(=O)O)c1 [CBK001718]
viability at 28.5 h, 10 µM: 82.6%

CC(=O)Nc1ccc([C@@H](O)[C@H]2COCC(=O)N2Cc2ccc(C(F)(F)F)cc2)cc1 [CBK289678]
viability at 28.5 h, 10 µM: 92.7%

COc1ccc(CCNC(=O)c2cnc3scc(C)n3c2=O)cc1 [CBK287291]
viability at 28.5 h, 10 µM: 103%

S=C(NCCC(c1ccccc1)c1ccccc1)NC1CCCCC1 [CBK264007]
viability at 28.5 h, 10 µM: 96.3%

Cn1ccc(C(=O)N2CCC[C@H](C(=O)c3cccs3)C2)n1 [CBK282412]
viability at 28.5 h, 10 µM: 98%

O=C(O)c1ccc(NC(=O)c2ccc(S(=O)(=O)N3CCCCC3)cc2)cc1 [CBK267813]
viability at 28.5 h, 10 µM: 94.2%
